# Bridges are numbered along the chain shown (N, C = ends). Where no end group is shown, it is not given here.
# Key:
# [1] = tested on: Human mesenchymal stem cells; experiment: ALP activity determination in human mesenchymal stem cells; assay type: cell-based; conditions: Day 7, differentiation medium and maintenance medium
# Description: Human mesenchymal stem cells were seeded on a 96-well plate (1×10^3 cells/well) (Nunc) and a 48-well plate (2.4×10^3 cells/well) (IWAKI). After 24 hours, the culture supernatant was removed from each plate and an osteoblast differentiation induction medium (Lonza) was introduced thereonto. The medium was replaced with new medium every 3 or 4 days.
# At such time, peptide D was added at a concentration of 100 μM (group treated with peptide D). As a negative control, the control peptide was added at the same concentration.
# Seven days after differentiation, the culture supernatant was removed from each plate and the cells were fixed with an acetone/ethanol solution. The ALP activity was determined using p-nitrophenyl phosphate as a substrate. Specifically, a carbonate buffer (5 mM MgCl2, 50 mM NaHCO3) containing p-nitrophenyl phosphate (Nacalai) (1 mg/mL) was added to each well (100 μL/well), followed by incubation at 37° C. Then, the OD value at 405 nm was determined with the use of a microplate reader (BMG Labtech) for each well.
# Human mesenchymal stem cells (hMSC; Lonza) were seeded on a 96-well plate (Nunc) (2×10^3 cells/well). After cell adhesion had taken place, the medium was replaced with a differentiation medium prepared by adding 100 nM dexamethasone (SIGMA), 10 mM BGP(SIGMA), and 50 μg/mL ascorbic acid to a dedicated maintenance medium (Lonza). […]
# [2] = tested on: Human mesenchymal stem cells; experiment: ALP staining of human mesenchymal stem cells; assay type: cell-based; conditions: Day 7 after differentiation; compared with the control group
# Description: Peptide D was added at a concentration of 300 μM during differentiation. On Day 7, cells were fixed with a 10% neutral buffer formalin solution, followed by re-fixation with an acetone/ethanol solution.
# A stain solution (500 μL) prepared with the composition described below was added to the cells, followed by incubation at 37° C. for 10 minutes, washing with water, and drying.
# Naphthol AS-MX phosphate (SIGMA): 5 mg
# Fast blue hemi-salt (SIGMA): 30 mg
# MC3T3-E1 cells = experiment: Alizarin red S staining (calcification) of MC3T3-E1 cells; assay type: cell-based, mouse; conditions: 300 μM; Day 21; differentiation medium and maintenance medium
# Description: On Day 21 after differentiation, the cells were washed with PBS, followed by fixation with a 10% neutral buffer formalin solution.
# The cells were washed with water after removal of the fixative solution. A 1% alizarin red S stain solution (Nacalai) (150 μL) was added thereto. The plate was left at room temperature for 3 minutes. Thereafter, the stain solution was discarded, followed by washing with water and drying. Then, microscopic observation was carried out.
# Cells mixed with 10% FBS+αMEM (GIBCO) were seeded on a 96-well plate (8×10^3 cells/well) and a 48-well plate (2×10^4 cells/well). The culture supernatant of each plate was replaced with 10% FBS+αMEM containing 5 mM β glycerophosphoric acid (SIGMA)+10 μg/mL sodium ascorbate (SIGMA) 48 hours later. Then, the medium was replaced with new medium every 3 or 4 days. As a control, MC3T3-E1 was cultured with the use of 10% FBS+αMEM as a maintenance medium. Upon medium replacement, a peptide was added to each plate at a concentration of 300 μM, ALP activity determination and alizarin red S staining were carried out by the method described in Example 1 on Days 7 and 21.
# Smad1/5/8 = experiment: Western blotting of Smad1/5/8 phosphorylation in MC3T3-E1 cells; assay type: cell-based, mouse; conditions: up to 3 hours after the addition; 200 μM peptide D or 200 ng/ml BMP-2
# Description: MC3T3-E1 cells mixed with 10% FBS+αMEM (SIGMA) were seeded on a 6-well plate (7.5×10^4 cells/well). […] The medium was removed at the respective time points shown in the relevant figures. PBS was added to the cells, and the cells were collected with a scraper (Falcon). A cell pellet was obtained via centrifugation at 1200 rpm for 5 min at 4° C. RIPA buffer (100 μL) was added to the collected pellet, for dissolution of the cellular membrane. Further, the resultant was centrifuged under conditions of 14500 rpm for 25 min at 4° C. The supernatant was collected as a cell extract. A portion of the cell extract was used for quantification of the protein concentration with the use of a BCA protein assay kit (PIERCE). For SDS-PAGE, a sample buffer in an amount that was ¼ that of the cell extract (Fermentas) was added thereto, followed by heating at 95° C. for 5 min. The prepared sample was applied in an amount of 7.5 or 10 μg to 10% polyacrylamide gel (BioRad), followed by electrophoresis at 170 V for 1 hour. After electrophoresis, the electrophoresed sample was transferred to a PVDF membrane (Millipore) at 80 mA for 40 min. The membrane was shaken in a blocking solution (Nacalai) at room temperature for 1 hour and then a primary antibody was added thereto, followed by shaking at room temperature for 1 hour at 4° C. for 12 hours. […]
# C57BL/6CrjCrlj mice = experiment: Bone morphology measurement with calcein labeling after peptide D administration; assay type: in vivo, mouse; conditions: region 5 mm away from the distal end of the femur
# Description: In the experiment in Example 11 in which synthetic peptide D had been administered to mice, calcein (Nacalai) mixed with 2% hydrogen carbonate/ethanol aqueous solution was intraperitoneally administered in doses of 0.01 mL/g (weight) to individual mice of each group for calcein labeling on Days 1 and 4 after the initiation of administration of synthetic peptide D. A region located 5 mm away from the ethanol-fixed distal end of the femur collected from each mouse upon dissection was embedded in a methylmethacrylate (MMA) resin so that a non-decalcified specimen was prepared. […] As a result, in the group treated with peptide D, increases in calcification rate and osteogenesis rate were observed (FIGS. 25A and 25B).
substance,measurement,setting,value
"peptide D: cyclic peptide of SEQ ID NO: 7, 9 amino acids, two cysteine residues bound via a disulfide bond; binds to RANKL (YCWSQYLCY; disulfide 2-8 (inferred))",ALP activity,[1]; 300 μM,significant increase in ALP activity
same,ALP activity,[1]; peptide D 100 μM,significantly increased
same,ALP staining,[2],observed in a concentration-dependent manner
same,alizarin red staining (calcification),MC3T3-E1 cells,strong degree of alizarin red staining
same,phosphorylation of Smad1/5/8,Smad1/5/8,not induced
same,calcification rate,C57BL/6CrjCrlj mice,increases
same,osteogenesis rate (bone formation rate),C57BL/6CrjCrlj mice,increases

# — patent publication US20100260680A1, “NOVEL BONE MASS INCREASING AGENT” (ORIENTAL YEAST CO., LTD., priority 2007, published 2010)
